Experimental data: PubChem BioAssay (NCI)
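Method: 48-hour compound exposure of cells in 96-well plates, five concentrations, linear interpolation of endpoints. GI50: concentration for 50% inhibition of growth. TGI denotes the concentration required for complete inhibition of growth.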

How the values were obtained:
Assay in all cases: growth of human tumour cells (NCI), 48 h
CAKI-1 renal = test system: CAKI-1 renal
SK-OV-3 ovarian = test system: SK-OV-3 ovarian
UACC-62 melanoma = test system: UACC-62 melanoma
BT-549 breast = test system: BT-549 breast
ACHN renal = test system: ACHN renal
786-0 renal = test system: 786-0 renal
MDA-MB-231 breast = test system: MDA-MB-231 breast
HS 578T breast = test system: HS 578T breast
SF-295 CNS = test system: SF-295 CNS
MCF7 breast = test system: MCF7 breast
CCRF-CEM leukemia = test system: CCRF-CEM leukemia
MOLT-4 leukemia = test system: MOLT-4 leukemia
HCT-15 colon = test system: HCT-15 colon
SNB-75 CNS = test system: SNB-75 CNS
OVCAR-8 ovarian = test system: OVCAR-8 ovarian
SR leukemia = test system: SR leukemia
SNB-19 CNS = test system: SNB-19 CNS
NCI-H460 lung = test system: NCI-H460 lung
NCI/ADR-RES ovarian = test system: NCI/ADR-RES ovarian
SW-620 colon = test system: SW-620 colon
UACC-257 melanoma = test system: UACC-257 melanoma
COLO 205 colon = test system: COLO 205 colon
HOP-62 NSCLC = test system: HOP-62 NSCLC
UO-31 renal = test system: UO-31 renal
NCI-H23 lung = test system: NCI-H23 lung
SN12C renal = test system: SN12C renal
SF-268 CNS = test system: SF-268 CNS
HCC-2998 colon = test system: HCC-2998 colon
A549 NSCLC = test system: A549 NSCLC
TK-10 renal = test system: TK-10 renal
HL-60(TB) leukemia = test system: HL-60(TB) leukemia
NCI-H226 lung = test system: NCI-H226 lung
M14 melanoma = test system: M14 melanoma
RPMI-8226 leukemia = test system: RPMI-8226 leukemia
A498 renal = test system: A498 renal
PC-3 prostate = test system: PC-3 prostate
K-562 leukemia = test system: K-562 leukemia
HOP-92 NSCLC = test system: HOP-92 NSCLC
T-47D breast = test system: T-47D breast
MDA-MB-435 = test system: MDA-MB-435
HT29 colon = test system: HT29 colon
SK-MEL-2 melanoma = test system: SK-MEL-2 melanoma
RXF 393 renal = test system: RXF 393 renal
SK-MEL-28 melanoma = test system: SK-MEL-28 melanoma
OVCAR-4 ovarian = test system: OVCAR-4 ovarian
SF-539 CNS = test system: SF-539 CNS
OVCAR-5 ovarian = test system: OVCAR-5 ovarian
DU-145 prostate = test system: DU-145 prostate
IGROV1 ovarian = test system: IGROV1 ovarian
SK-MEL-5 melanoma = test system: SK-MEL-5 melanoma
MALME-3M melanoma = test system: MALME-3M melanoma
KM12 colon = test system: KM12 colon

Cc1cc2nc(C(Cl)Cl)nc(-c3cccs3)n2n1
GI50 (CAKI-1 renal): 1660 nM
TGI (CAKI-1 renal): 5.97 µM
GI50 (SK-OV-3 ovarian): 2150 nM
TGI (SK-OV-3 ovarian): 6.51 µM
GI50 (UACC-62 melanoma): 3000 nM
TGI (UACC-62 melanoma): > 100 µM
GI50 (BT-549 breast): 7.67 µM
TGI (BT-549 breast): > 100 µM
GI50 (ACHN renal): 366 nM
TGI (ACHN renal): 2440 nM
GI50 (786-0 renal): 4.7 µM
TGI (786-0 renal): > 100 µM
GI50 (MDA-MB-231 breast): 1550 nM
TGI (MDA-MB-231 breast): 4.43 µM
GI50 (HS 578T breast): 1930 nM
TGI (HS 578T breast): 6.21 µM
GI50 (SF-295 CNS): 1270 nM
TGI (SF-295 CNS): 5.8 µM
GI50 (MCF7 breast): 705 nM
TGI (MCF7 breast): > 100 µM
GI50 (CCRF-CEM leukemia): 4.22 µM
TGI (CCRF-CEM leukemia): > 100 µM
GI50 (MOLT-4 leukemia): 1480 nM
TGI (MOLT-4 leukemia): > 100 µM
GI50 (HCT-15 colon): 1200 nM
TGI (HCT-15 colon): 4.03 µM
GI50 (SNB-75 CNS): 702 nM
TGI (SNB-75 CNS): 2940 nM
GI50 (OVCAR-8 ovarian): 1270 nM
TGI (OVCAR-8 ovarian): > 100 µM
GI50 (SR leukemia): 1430 nM
TGI (SR leukemia): > 100 µM
GI50 (SNB-19 CNS): 1180 nM
TGI (SNB-19 CNS): 5.99 µM
GI50 (NCI-H460 lung): 333 nM
TGI (NCI-H460 lung): 1570 nM
GI50 (NCI/ADR-RES ovarian): 1260 nM
TGI (NCI/ADR-RES ovarian): 4.72 µM
GI50 (SW-620 colon): 1380 nM
TGI (SW-620 colon): 8.1 µM
GI50 (UACC-257 melanoma): 1870 nM
TGI (UACC-257 melanoma): 4.55 µM
GI50 (COLO 205 colon): 942 nM
TGI (COLO 205 colon): 3.29 µM
GI50 (HOP-62 NSCLC): 938 nM
TGI (HOP-62 NSCLC): 4.43 µM
GI50 (UO-31 renal): 1670 nM
TGI (UO-31 renal): 5.14 µM
GI50 (NCI-H23 lung): 953 nM
TGI (NCI-H23 lung): 2960 nM
GI50 (SN12C renal): > 100 µM
TGI (SN12C renal): > 100 µM
GI50 (SF-268 CNS): 1980 nM
TGI (SF-268 CNS): 7.27 µM
GI50 (HCC-2998 colon): 514 nM
TGI (HCC-2998 colon): 1910 nM
GI50 (A549 NSCLC): 374 nM
TGI (A549 NSCLC): 3.51 µM
GI50 (TK-10 renal): 2110 nM
TGI (TK-10 renal): 5.92 µM
GI50 (HL-60(TB) leukemia): 346 nM
TGI (HL-60(TB) leukemia): 2390 nM
GI50 (NCI-H226 lung): > 100 µM
TGI (NCI-H226 lung): > 100 µM
GI50 (M14 melanoma): 2100 nM
TGI (M14 melanoma): 4.99 µM
GI50 (RPMI-8226 leukemia): 1400 nM
TGI (RPMI-8226 leukemia): 5.47 µM
GI50 (A498 renal): 1200 nM
TGI (A498 renal): 2660 nM
GI50 (PC-3 prostate): 1410 nM
TGI (PC-3 prostate): 4.32 µM
GI50 (K-562 leukemia): 2540 nM
TGI (K-562 leukemia): > 100 µM
GI50 (HOP-92 NSCLC): 1410 nM
TGI (HOP-92 NSCLC): 3.92 µM
GI50 (T-47D breast): 1400 nM
TGI (T-47D breast): 7.66 µM
GI50 (MDA-MB-435): 1860 nM
TGI (MDA-MB-435): 3.81 µM
GI50 (HT29 colon): 496 nM
TGI (HT29 colon): 2190 nM
GI50 (SK-MEL-2 melanoma): 3.05 µM
TGI (SK-MEL-2 melanoma): > 100 µM
GI50 (RXF 393 renal): 838 nM
TGI (RXF 393 renal): 2230 nM
GI50 (SK-MEL-28 melanoma): 1830 nM
TGI (SK-MEL-28 melanoma): 3.63 µM
GI50 (OVCAR-4 ovarian): 2120 nM
TGI (OVCAR-4 ovarian): 4.74 µM
GI50 (SF-539 CNS): 2270 nM
TGI (SF-539 CNS): 7.49 µM
GI50 (OVCAR-5 ovarian): 1930 nM
TGI (OVCAR-5 ovarian): 5.73 µM
GI50 (DU-145 prostate): 289 nM
TGI (DU-145 prostate): 858 nM
GI50 (IGROV1 ovarian): 2430 nM
TGI (IGROV1 ovarian): > 100 µM
GI50 (SK-MEL-5 melanoma): 9.61 µM
TGI (SK-MEL-5 melanoma): > 100 µM
GI50 (MALME-3M melanoma): 2210 nM
TGI (MALME-3M melanoma): 5.31 µM
GI50 (KM12 colon): 2020 nM
TGI (KM12 colon): 4.51 µM
